Test results: paper PMC5218480 (PLoS ONE, 2017)

Test system: MV-4-11 cells
Experiment: Gene expression microarray analysis (Affymetrix PrimeView) and GSEA
Format: cell-based, human
Parameters: RFU PODN (11730768_x_at) / Fold change /veh PODN (11730768_x_at) / RFU LINC00158 (11744669_a_at) / Fold change /veh LINC00158 (11744669_a_at) / RFU DUSP10 (11751237_a_at) / Fold change /veh DUSP10 (11751237_a_at) / RFU ID3 (11757404_x_at) / Fold change /veh ID3 (11757404_x_at) / RFU PLEKHG5 (11737974_s_at) / Fold change /veh PLEKHG5 (11737974_s_at) / RFU LRRC4B (11730491_at) / Fold change /veh LRRC4B (11730491_at) / RFU GIMAP4 (11747438_a_at) / Fold change /veh GIMAP4 (11747438_a_at) / RFU KRT8 (11758183_x_at) / Fold change /veh KRT8 (11758183_x_at) / RFU CNN1 (11734310_a_at) / Fold change /veh CNN1 (11734310_a_at) / RFU VPS37D (11726825_at) / Fold change /veh VPS37D (11726825_at) / RFU C10orf10 (11716522_x_at) / Fold change /veh C10orf10 (11716522_x_at) / RFU KIR2DL2 /// KIR2DL4 /// KIR2DL5A /// KIR2DL5B /// KIR2DS1 /// KIR2DS2 /// KIR2DS3 /// KIR2DS4 /// KIR3DL3 /// KIR3DL3 /// KIR3DS1 (11738374_at) / Fold change /veh KIR2DL2 /// KIR2DL4 /// KIR2DL5A /// KIR2DL5B /// KIR2DS1 /// KIR2DS2 /// KIR2DS3 /// KIR2DS4 /// KIR3DL3 /// KIR3DL3 /// KIR3DS1 (11738374_at) / RFU C1QL1 (11718748_at) / Fold change /veh C1QL1 (11718748_at) / RFU TMPRSS4 (11747572_a_at) / Fold change /veh TMPRSS4 (11747572_a_at) / RFU HAMP (11756126_x_at) / Fold change /veh HAMP (11756126_x_at) / RFU RNFT2 (11725882_a_at) / Fold change /veh RNFT2 (11725882_a_at) / RFU NR4A2 (11747474_a_at) / Fold change /veh NR4A2 (11747474_a_at) / RFU ABCC12 (11746883_a_at) / Fold change /veh ABCC12 (11746883_a_at) / RFU TMEM136 (11760407_x_at) / Fold change /veh TMEM136 (11760407_x_at) / RFU CLDN22 /// WWC2 (11732394_at) / Fold change /veh CLDN22 /// WWC2 (11732394_at) / RFU HLA-DPB1 (11760878_x_at) / Fold change /veh HLA-DPB1 (11760878_x_at) / RFU SPINT1 (11716480_a_at) / Fold change /veh SPINT1 (11716480_a_at) / RFU GAP43 (11754022_s_at) / Fold change /veh GAP43 (11754022_s_at) / RFU A4GNT (11735810_at) / Fold change /veh A4GNT (11735810_at) / RFU PRB3 (11715151_x_at) / Fold change /veh PRB3 (11715151_x_at) / RFU TUBB4B (11761932_at) / Fold change /veh TUBB4B (11761932_at) / RFU CAPN14 (11732068_a_at) / Fold change /veh CAPN14 (11732068_a_at) / RFU TMCC2 (11721928_a_at) / Fold change /veh TMCC2 (11721928_a_at) / RFU IRGQ (11745062_a_at) / Fold change /veh IRGQ (11745062_a_at) / RFU FAM174B (11720279_a_at) / Fold change /veh FAM174B (11720279_a_at) / RFU TMPRSS4 (11748680_a_at) / Fold change /veh TMPRSS4 (11748680_a_at) / RFU FAM212B (11763350_a_at) / Fold change /veh FAM212B (11763350_a_at) / RFU PLEKHG5 (11743358_a_at) / Fold change /veh PLEKHG5 (11743358_a_at) / RFU ZSCAN30 (11745921_a_at) / Fold change /veh ZSCAN30 (11745921_a_at) / RFU CMKLR1 (11741424_a_at) / Fold change /veh CMKLR1 (11741424_a_at) / RFU LOC101060620 /// MAPK8IP1 (11723275_at) / Fold change /veh LOC101060620 /// MAPK8IP1 (11723275_at) / RFU SPTSSB (11747773_x_at) / Fold change /veh SPTSSB (11747773_x_at) / RFU PRSS12 (11739890_at) / Fold change /veh PRSS12 (11739890_at) / RFU BIN1 (11741810_x_at) / Fold change /veh BIN1 (11741810_x_at) / RFU WNT11 (11732464_a_at) / Fold change /veh WNT11 (11732464_a_at) / RFU C10orf10 (11716521_a_at) / Fold change /veh C10orf10 (11716521_a_at) / RFU C5orf56 (11738089_at) / Fold change /veh C5orf56 (11738089_at) / RFU CYB561 (11721691_x_at) / Fold change /veh CYB561 (11721691_x_at) / RFU ANKRD19P (11752326_a_at) / Fold change /veh ANKRD19P (11752326_a_at) / RFU OR2T12 /// OR2T33 /// OR2T8 (11738714_s_at) / Fold change /veh OR2T12 /// OR2T33 /// OR2T8 (11738714_s_at) / RFU VCAN (11748164_a_at) / Fold change /veh VCAN (11748164_a_at) / RFU JSRP1 (11732532_at) / Fold change /veh JSRP1 (11732532_at) / RFU KRTAP10-11 (11738290_x_at) / Fold change /veh KRTAP10-11 (11738290_x_at) / RFU MYO3A (11730013_a_at) / Fold change /veh MYO3A (11730013_a_at) / RFU EBF3 (11725865_a_at) / Fold change /veh EBF3 (11725865_a_at) / RFU CAMK2N1 (11719241_x_at) / Fold change /veh CAMK2N1 (11719241_x_at) / RFU C5orf56 (11738088_a_at) / Fold change /veh C5orf56 (11738088_a_at) / RFU OLFML3 (11715873_a_at) / Fold change /veh OLFML3 (11715873_a_at) / RFU LOC100653217 /// NTM (11731650_a_at) / Fold change /veh LOC100653217 /// NTM (11731650_a_at) / RFU MAPK11 (11762145_a_at) / Fold change /veh MAPK11 (11762145_a_at) / RFU FIZ1 (11724087_x_at) / Fold change /veh FIZ1 (11724087_x_at) / RFU OASL (11726364_x_at) / Fold change /veh OASL (11726364_x_at) / RFU SOX15 (11748057_x_at) / Fold change /veh SOX15 (11748057_x_at) / RFU CD79A (11719716_a_at) / Fold change /veh CD79A (11719716_a_at) / RFU HIST1H1D (11736915_at) / Fold change /veh HIST1H1D (11736915_at) / RFU CASKIN2 (11723855_a_at) / Fold change /veh CASKIN2 (11723855_a_at) / RFU LOC730098 (11760151_x_at) / Fold change /veh LOC730098 (11760151_x_at) / RFU OR4N2 (11742367_at) / Fold change /veh OR4N2 (11742367_at) / RFU PRRT2 (11749266_a_at) / Fold change /veh PRRT2 (11749266_a_at) / RFU SNX32 (11753110_a_at) / Fold change /veh SNX32 (11753110_a_at) / RFU CDHR5 (11726645_a_at) / Fold change /veh CDHR5 (11726645_a_at) / RFU RCAN1 (11760418_a_at) / Fold change /veh RCAN1 (11760418_a_at) / RFU FAM167A (11723789_a_at) / Fold change /veh FAM167A (11723789_a_at) / RFU FAM26E (11764081_at) / Fold change /veh FAM26E (11764081_at) / RFU ISYNA1 (11749810_s_at) / Fold change /veh ISYNA1 (11749810_s_at) / RFU ACY1 (11761880_at) / Fold change /veh ACY1 (11761880_at) / RFU 11764098_at / Fold change /veh 11764098_at / RFU SAMD14 (11745864_x_at) / Fold change /veh SAMD14 (11745864_x_at) / RFU NPB (11741838_a_at) / Fold change /veh NPB (11741838_a_at) / RFU TMPRSS6 (11731388_a_at) / Fold change /veh TMPRSS6 (11731388_a_at) / RFU KRTAP10-2 (11738614_at) / Fold change /veh KRTAP10-2 (11738614_at) / RFU ARHGAP8 /// PRR5-ARHGAP8 (11727945_x_at) / Fold change /veh ARHGAP8 /// PRR5-ARHGAP8 (11727945_x_at) / RFU KRTAP5-7 /// NADSYN1 (11734609_at) / Fold change /veh KRTAP5-7 /// NADSYN1 (11734609_at) / RFU RASL12 (11751679_a_at) / Fold change /veh RASL12 (11751679_a_at) / RFU CDKN2B (11736163_a_at) / Fold change /veh CDKN2B (11736163_a_at) / RFU PRF1 (11729649_at) / Fold change /veh PRF1 (11729649_at) / RFU, ZNF638 /// ZNF638-IT1 / Fold change vs veh, ZNF638 /// ZNF638-IT1 / RFU, PANK3 / Fold change vs veh, PANK3 / RFU, SH3YL1 / Fold change vs veh, SH3YL1 / RFU, ZEB2 / Fold change vs veh, ZEB2 / RFU, NRIP1 / Fold change vs veh, NRIP1 / RFU, PTTG1IP / Fold change vs veh, PTTG1IP / RFU, CAPN2 / Fold change vs veh, CAPN2 / RFU, MED14 / Fold change vs veh, MED14 / RFU, SNORA58 / Fold change vs veh, SNORA58 / RFU, C1orf63 / Fold change vs veh, C1orf63 / RFU, LRRFIP1 / Fold change vs veh, LRRFIP1 / RFU, NDUFAF7 / Fold change vs veh, NDUFAF7 / RFU, SLC12A2 / Fold change vs veh, SLC12A2 / RFU, IBTK / Fold change vs veh, IBTK / RFU, ESF1 / Fold change vs veh, ESF1 / Fold change vs veh, TMEM50B / RFU, TAOK1 / Fold change vs veh, TAOK1 / RFU, ACBD3 / Fold change vs veh, ACBD3 / RFU, TMA16 / Fold change vs veh, TMA16 / RFU, RWDD3 / Fold change vs veh, RWDD3 / RFU, BCAT1 / Fold change vs veh, BCAT1 / RFU, EDEM3 / Fold change vs veh, EDEM3 / RFU, TMEM33 / Fold change vs veh, TMEM33 / RFU, WDR75 / Fold change vs veh, WDR75 / RFU, AHCTF1 / Fold change vs veh, AHCTF1 / RFU, TFRC / Fold change vs veh, TFRC / RFU, ZDHHC17 / Fold change vs veh, ZDHHC17 / RFU, NOM1 / Fold change vs veh, NOM1 / RFU, ARL8B / Fold change vs veh, ARL8B / RFU, ZBTB11 / Fold change vs veh, ZBTB11 / RFU, TAMM41 / Fold change vs veh, TAMM41 / RFU, KIAA1704 /// LOC100996395 / Fold change vs veh, KIAA1704 /// LOC100996395 / RFU, ING1 / Fold change vs veh, ING1 / RFU, TRMT61B / Fold change vs veh, TRMT61B / RFU, FUBP3 / Fold change vs veh, FUBP3 / RFU, TP53 / Fold change vs veh, TP53 / RFU, TNKS2 / Fold change vs veh, TNKS2 / RFU, ZFP14 / Fold change vs veh, ZFP14 / RFU, ACTR2 / Fold change vs veh, ACTR2 / RFU, PPP3R1 / Fold change vs veh, PPP3R1 / RFU, PIK3R1 / Fold change vs veh, PIK3R1 / RFU, HNRNPA1 / Fold change vs veh, HNRNPA1 / RFU, RNF170 / Fold change vs veh, RNF170 / RFU, ZNF28 / Fold change vs veh, ZNF28 / RFU, RNGTT / Fold change vs veh, RNGTT / RFU, OGT / Fold change vs veh, OGT / RFU, BRD1 / Fold change vs veh, BRD1 / RFU, MARS / Fold change vs veh, MARS / RFU, ZNF655 / Fold change vs veh, ZNF655 / RFU, FAHD1 / Fold change vs veh, FAHD1 / RFU, BDP1 / Fold change vs veh, BDP1 / RFU, LRRCC1 / Fold change vs veh, LRRCC1 / RFU, ARID1A / Fold change vs veh, ARID1A / RFU, ZNF146 / Fold change vs veh, ZNF146 / RFU, ZNF330 / Fold change vs veh, ZNF330 / RFU, GPN3 / Fold change vs veh, GPN3 / RFU, C9orf123 / Fold change vs veh, C9orf123 / RFU, N4BP2L2 / Fold change vs veh, N4BP2L2 / RFU, ARFIP1 / Fold change vs veh, ARFIP1 / RFU, FAM179B / Fold change vs veh, FAM179B / RFU, BCL10 / Fold change vs veh, BCL10 / RFU, UHRF1BP1L / Fold change vs veh, UHRF1BP1L / RFU, BET1 / Fold change vs veh, BET1 / RFU, CNOT2 / Fold change vs veh, CNOT2 / RFU, ZNF268 / Fold change vs veh, ZNF268 / Fold change vs veh, ZNF507 / RFU, DGCR2 / Fold change vs veh, DGCR2 / RFU, WDSUB1 / Fold change vs veh, WDSUB1 / Fold change vs veh, HSP90B1 /// MIR3652 / RFU, ADSS / Fold change vs veh, ADSS / RFU, GK / Fold change vs veh, GK / RFU, ZNF148 / Fold change vs veh, ZNF148 / RFU, TAF9 / Fold change vs veh, TAF9 / RFU, SLC1A5 / Fold change vs veh, SLC1A5 / RFU, SLMO2 / Fold change vs veh, SLMO2 / RFU, ABCC4 / Fold change vs veh, ABCC4 / RFU, LOC101060439 /// RAP1B / Fold change vs veh, LOC101060439 /// RAP1B / RFU, RFX7 / Fold change vs veh, RFX7 / RFU, GTPBP10 / Fold change vs veh, GTPBP10 / RFU, CNEP1R1 / Fold change vs veh, CNEP1R1 / RFU, BIVM-ERCC5 /// ERCC5 / Fold change vs veh, BIVM-ERCC5 /// ERCC5 / RFU, ILF3 / Fold change vs veh, ILF3 / RFU 11762660_at / Fold change /veh 11762660_at / RFU VCAN (11757783_s_at) / Fold change /veh VCAN (11757783_s_at) / RFU DDX43 (11728927_at) / Fold change /veh DDX43 (11728927_at) / RFU KRT8 (11758188_x_at) / Fold change /veh KRT8 (11758188_x_at) / RFU NKD1 (11759106_at) / Fold change /veh NKD1 (11759106_at) / RFU SRD5A1 (11742802_a_at) / Fold change /veh SRD5A1 (11742802_a_at) / RFU TPSAB1 /// TPSB2 (11721975_s_at) / Fold change /veh TPSAB1 /// TPSB2 (11721975_s_at) / RFU GSTM3 (11746129_a_at) / Fold change /veh GSTM3 (11746129_a_at) / RFU IL23R (11737362_x_at) / Fold change /veh IL23R (11737362_x_at) / RFU TMEM51 (11727254_a_at) / Fold change /veh TMEM51 (11727254_a_at) / RFU PIWIL2 (11732686_x_at) / Fold change /veh PIWIL2 (11732686_x_at) / RFU ORM1 (11744905_x_at) / Fold change /veh ORM1 (11744905_x_at) / RFU CCDC152 (11743942_at) / Fold change /veh CCDC152 (11743942_at) / RFU ECM1 (11717891_a_at) / Fold change /veh ECM1 (11717891_a_at) / RFU IL23R (11748794_a_at) / Fold change /veh IL23R (11748794_a_at) / RFU TNFAIP8L3 (11732012_x_at) / Fold change /veh TNFAIP8L3 (11732012_x_at) / RFU MBOAT4 (11741988_at) / Fold change /veh MBOAT4 (11741988_at) / RFU 11764193_at / Fold change /veh 11764193_at / RFU TMEM53 (11763286_at) / Fold change /veh TMEM53 (11763286_at) / RFU MAGEB2 (11727129_at) / Fold change /veh MAGEB2 (11727129_at) / RFU TMEM200A (11744735_a_at) / Fold change /veh TMEM200A (11744735_a_at) / RFU CCDC152 (11751479_a_at) / Fold change /veh CCDC152 (11751479_a_at) / RFU FAM211A (11726209_a_at) / Fold change /veh FAM211A (11726209_a_at) / RFU RGS16 (11746705_a_at) / Fold change /veh RGS16 (11746705_a_at) / RFU VCAN (11755009_s_at) / Fold change /veh VCAN (11755009_s_at) / RFU RHOB (11743442_s_at) / Fold change /veh RHOB (11743442_s_at) / RFU RGS16 (11720943_a_at) / Fold change /veh RGS16 (11720943_a_at) / RFU RGS16 (11720944_at) / Fold change /veh RGS16 (11720944_at) / RFU, VPS4B / Fold change vs veh, VPS4B / RFU, CREB1 / Fold change vs veh, CREB1 / RFU, DNAJC13 / Fold change vs veh, DNAJC13 / RFU, GNAQ / Fold change vs veh, GNAQ / RFU, CDK5R1 / Fold change vs veh, CDK5R1 / RFU, ZRANB3 / Fold change vs veh, ZRANB3 / RFU, CUL4A / Fold change vs veh, CUL4A / RFU, CCNY / Fold change vs veh, CCNY / RFU, UFL1 / Fold change vs veh, UFL1 / RFU, COG3 / Fold change vs veh, COG3 / RFU, DIAPH2 / Fold change vs veh, DIAPH2 / RFU, SKA2 / Fold change vs veh, SKA2 / RFU, AFF3 / Fold change vs veh, AFF3 / RFU, LMF1 / Fold change vs veh, LMF1 / RFU, IPO11 / Fold change vs veh, IPO11 / RFU, DFFB / Fold change vs veh, DFFB / RFU, FOXP1 / Fold change vs veh, FOXP1 / RFU, CARD8 / Fold change vs veh, CARD8 / RFU, STRN3 / Fold change vs veh, STRN3 / RFU, ADK / Fold change vs veh, ADK / RFU, RASSF2 / Fold change vs veh, RASSF2 / RFU, WIPF1 / Fold change vs veh, WIPF1 / RFU, LARP1B / Fold change vs veh, LARP1B / RFU, RASA1 / Fold change vs veh, RASA1 / RFU, RB1 / Fold change vs veh, RB1 / RFU, PPFIA1 / Fold change vs veh, PPFIA1 / RFU, MAT2A / Fold change vs veh, MAT2A / RFU, CCT5 / Fold change vs veh, CCT5 / RFU, WDR92 / Fold change vs veh, WDR92 / RFU, CUX1 / Fold change vs veh, CUX1 / RFU, TTC7A / Fold change vs veh, TTC7A / RFU, TMEM135 / Fold change vs veh, TMEM135 / RFU, DEPTOR / Fold change vs veh, DEPTOR / RFU, CPM / Fold change vs veh, CPM / RFU, DNAJB6 / Fold change vs veh, DNAJB6 / RFU, CACNA2D3 / Fold change vs veh, CACNA2D3 / RFU, DTX4 / Fold change vs veh, DTX4 / RFU, TFCP2 / Fold change vs veh, TFCP2 / RFU, GMCL1 /// GMCL1P1 / Fold change vs veh, GMCL1 /// GMCL1P1 / RFU, AEBP2 / Fold change vs veh, AEBP2 / RFU, SNHG1 /// SNORD22 /// SNORD25 /// SNORD26 /// SNORD27 /// SNORD28 /// SNORD29 /// SNORD31 / Fold change vs veh, SNHG1 /// SNORD22 /// SNORD25 /// SNORD26 /// SNORD27 /// SNORD28 /// SNORD29 /// SNORD31 / Fold change (Aza/veh), C12orf56 (ProbeSet 11735607_a_at) / Fold change (ACY-1035/veh), C12orf56 (ProbeSet 11735607_a_at) / Fold change (Aza/veh), FGFR1OP (ProbeSet 11751329_s_at) / Fold change (ACY-1035/veh), FGFR1OP (ProbeSet 11751329_s_at) / Fold change (Aza/veh), VPS36 (ProbeSet 11739960_a_at) / Fold change (ACY-1035/veh), VPS36 (ProbeSet 11739960_a_at) / RFU SYPL1 (11715823_x_at) / Fold change /veh SYPL1 (11715823_x_at) / RFU IGFBP7 (11715501_s_at) / Fold change /veh IGFBP7 (11715501_s_at) / RFU REEP3 (11722064_at) / Fold change /veh REEP3 (11722064_at) / RFU IGLL1 (11728026_x_at) / Fold change /veh IGLL1 (11728026_x_at): dose or concentration left out as unconfirmed
Settings: ProbeSet 11745789_a_at; LIST D

Nc1ccc(-c2cccs2)cc1NC(=O)c1ccc2c(c1)cc(C1CC1)n2CCN1CCOCC1 [ACY-1035]
Fold change vs veh, TMEM135: 0.97
